In PMC2769490 (Journal of the American Chemical Society, 2009) one finds Kd data, which are given here for one compound.

For this assay, the target named is rabbit muscle actin (Oryctolagus cuniculus, UniProt P68135). The experiment in a line: microcalorimetry. Format: binding.

On to `O=C(c1ccccc1O)c1[nH]c(Cl)c(Cl)c1-n1c(C(=O)c2ccccc2O)cc(Cl)c1Cl` [compound 6, marinopyrrole A], for which the Kd (as a rule, the equilibrium constant for the complex coming apart) was determined as 120 ± 200 nM.
